Experimental data published in patent publication US12208088B2 (Genentech, Inc., priority 2018, dated 2025).

Target: HPK1 (Homo sapiens (Human), UniProt Q92918)
Experiment: HPK1 Lantha binding assay ("Lanth")
Conditions: binding assays; Morrison Ki fit
Procedure, shortened: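 Ki values are from Morrison-equation fitting of 665/615 nm TR-FRET signals, taking enzyme level, tracer level and tracer Kd into account. The assay mix held HPK1 (2 nM), Eu-anti-GST antibody (2 nM) and Tracer222 (15 nM). Incubations were two 1 h steps at 23 °C, on 5-fold serial compound dilutions.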

Sequence of HPK1 (Q92918 1-346 limits assumed): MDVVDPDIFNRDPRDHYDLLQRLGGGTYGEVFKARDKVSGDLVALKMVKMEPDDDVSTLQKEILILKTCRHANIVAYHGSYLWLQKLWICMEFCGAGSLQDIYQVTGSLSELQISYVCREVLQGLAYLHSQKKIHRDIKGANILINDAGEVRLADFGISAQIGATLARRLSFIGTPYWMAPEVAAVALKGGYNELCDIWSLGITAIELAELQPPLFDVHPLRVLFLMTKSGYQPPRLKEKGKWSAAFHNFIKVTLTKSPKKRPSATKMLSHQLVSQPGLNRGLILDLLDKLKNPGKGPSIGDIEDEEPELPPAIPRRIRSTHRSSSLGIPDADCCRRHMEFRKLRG

Compound	Ki
CN(C)C(=O)c1c(N)ccc(-c2cnc3c(c2)[C@]2(CN3)C[C@H](O)C2)c1F [Compound 77a, 6-Amino-2-fluoro-3-((1r,3r)-3-hydroxy-1′,2′-dihydrospiro[cyclobutane-1,3′-pyrrolo[2,3-b]pyridin]-5′-yl)-N,N-dimethylbenzamide]	160 nM
CN(C)C(=O)c1c(N)ccc(-c2cnc3c(c2)[C@]2(CN3)C[C@@H](O)C2)c1F [Compound 77b, 6-Amino-2-fluoro-3-((1s,3s)-3-hydroxy-1′,2′-dihydrospiro[cyclobutane-1,3′-pyrrolo[2,3-b]pyridin]-5′-yl)-N,N-dimethylbenzamide]	217 nM
CN(C)C(=O)c1c(N)ccc(-c2cnc3c(c2)[C@]2(CN3)C[C@](C)(O)C2)c1F [Compound 78a, 6-Amino-2-fluoro-3-((1r,3r)-3-hydroxy-3-methyl-1′,2′-dihydrospiro[cyclobutane-1,3′-pyrrolo[2,3-b]pyridin]-5′-yl)-N,N-dimethylbenzamide]	927 nM
CN(C)C(=O)c1c(N)ccc(-c2cnc3c(c2)[C@]2(CN3)C[C@@](C)(O)C2)c1F [Compound 78b, 6-Amino-2-fluoro-3-((1s,3s)-3-hydroxy-3-methyl-1′,2′-dihydrospiro[cyclobutane-1,3′-pyrrolo[2,3-b]pyridin]-5′-yl)-N,N-dimethylbenzamide]	165 nM
CN(C)C(=O)c1c(N)ccc(-c2cnc3c(c2)C2(CNC(=O)C2)CN3)c1F (stereo not drawn) [Compound 79, 6-Amino-2-fluoro-N,N-dimethyl-3-(5-oxo-1′,2′-dihydrospiro[pyrrolidine-3,3′-pyrrolo[2,3-b]pyridin]-5′-yl)benzamide]	659 nM
CO[C@H]1C[C@]2(CNc3ncc(-c4ccc(N)c(C(=O)N(C)C)c4F)c(Cl)c32)C1 [Compound 80a, 6-Amino-3-((1r,3r)-4′-chloro-3-methoxy-1′,2′-dihydrospiro[cyclobutane-1,3′-pyrrolo[2,3-b]pyridin]-5′-yl)-2-fluoro-N,N-dimethylbenzamide]	97.6 nM
CO[C@H]1C[C@@]2(CNc3ncc(-c4ccc(N)c(C(=O)N(C)C)c4F)c(Cl)c32)C1 [Compound 80b, 6-Amino-3-((1s,3s)-4′-chloro-3-methoxy-1′,2′-dihydrospiro[cyclobutane-1,3′-pyrrolo[2,3-b]pyridin]-5′-yl)-2-fluoro-N,N-dimethylbenzamide]	129 nM
CC(=O)NC1CCC2(CNc3ncc(-c4ccc(N)c(C(=O)N(C)C)c4F)c(Cl)c32)C1 (stereo not drawn) [Compound 83, 3-(3-Acetamido-4′-chloro-1′,2′-dihydrospiro[cyclopentane-1,3′-pyrrolo[2,3-b]pyridin]-5′-yl)-6-amino-2-fluoro-N,N-dimethylbenzamide]	208 nM
CN(C)C(=O)c1c(N)ccc(-c2cnc3c(c2Cl)[C@]2(CC[C@H](n4cncn4)C2)CN3)c1F [Compound 85a, 6-Amino-3-((1R,3S)-4′-chloro-3-(1H-1,2,4-triazol-1-yl)-1′,2′-dihydrospiro[cyclopentane-1,3′-pyrrolo[2,3-b]pyridin]-5′-yl)-2-fluoro-N,N-dimethylbenzamide]	48.1 nM
CN(C)C(=O)c1c(N)ccc(-c2cnc3c(c2Cl)[C@]2(CC[C@@H](n4cncn4)C2)CN3)c1F [Compound 85c, 6-Amino-3-((1R,3R)-4′-chloro-3-(1H-1,2,4-triazol-1-yl)-1′,2′-dihydrospiro[cyclopentane-1,3′-pyrrolo[2,3-b]pyridin]-5′-yl)-2-fluoro-N,N-dimethylbenzamide]	149 nM
C[C@@H]1C[C@@]12CNc1ncc(-c3ccc(N)c(C(=O)N(C)C)c3F)cc12 [Compound 86c, 6-Amino-2-fluoro-N,N-dimethyl-3-((1R,2R)-2-methyl-1′,2′-dihydrospiro[cyclopropane-1,3′-pyrrolo[2,3-b]pyridin]-5′-yl)benzamide]	3.25 nM
CN(C)C(=O)c1c(N)ccc(-c2cnc3c(c2)[C@]2(CN3)C[C@@](O)(C(F)(F)F)C2)c1F [Compound 87a]	358 nM
CN(C)C(=O)c1c(N)ccc(-c2cnc3c(c2)[C@]2(CN3)C[C@@H](n3cncn3)C2)c1F [Compound 88a]	126 nM
CN(C)C(=O)c1c(N)ccc(-c2cnc3c(c2Cl)[C@]2(CC[C@@H](n4nccn4)C2)CN3)c1F [Compound 89c, 6-Amino-3-((1R,3R)-4′-chloro-3-(2H-1,2,3-triazol-2-yl)-1′,2′-dihydrospiro[cyclopentane-1,3′-pyrrolo[2,3-b]pyridin]-5′-yl)-2-fluoro-N,N-dimethylbenzamide]	23.1 nM
CN(C)C(=O)c1c(N)ccc(-c2cnc3c(c2Cl)[C@]2(CC[C@H](n4ccnn4)C2)CN3)c1F [Compound 90a]	51.8 nM
CC(=O)N1CC2(CNc3ncc(-c4ccc(N)c(C(=O)N(C)C)c4F)cc32)C1 [Compound 93, 3-(1-Acetyl-1′,2′-dihydrospiro[azetidine-3,3′-pyrrolo[2,3-b]pyridin]-5′-yl)-6-amino-2-fluoro-N,N-dimethylbenzamide]	916 nM
CN(C)C(=O)c1c(N)ccc(-c2cnc3c(c2)C2(CN3)CC(=CC#N)C2)c1F (stereo not drawn) [Compound 94a, (s,E)-6-Amino-3-(3-(cyanomethylene)-1′,2′-dihydrospiro[cyclobutane-1,3′-pyrrolo[2,3-b]pyridin]-5′-yl)-2-fluoro-N,N-dimethylbenzamide]	73.6 nM
CN(C)C(=O)c1c(N)ccc(-c2cnc3c(c2)[C@]2(CN3)C[C@@H](CC#N)C2)c1F [Compound 95a, 6-Amino-3-((1r,3r)-3-(cyanomethyl)-1′,2′-dihydrospiro[cyclobutane-1,3′-pyrrolo[2,3-b]pyridin]-5′-yl)-2-fluoro-N,N-dimethylbenzamide]	120 nM
CN(C)C(=O)c1c(N)ccc(-c2cnc3c(c2)[C@]2(CN3)C[C@@H](C#N)C2)c1F [Compound 96a]	124 nM
CN(C)C(=O)c1c(N)ccc(-c2cnc3c(c2)[C@]2(CN3)C[C@@H](C(N)=O)C2)c1F [Compound 97a]	50.7 nM
CN(C)C(=O)c1c(N)ccc(-c2cnc3c(c2)C2(CN3)CC(=CC(N)=O)C2)c1F (stereo not drawn) [Compound 101, 6-Amino-3-(3-(2-amino-2-oxoethylidene)-1′,2′-dihydrospiro[cyclobutane-1,3′-pyrrolo[2,3-b]pyridin]-5′-yl)-2-fluoro-N,N-dimethylbenzamide]	55.8 nM
CN(C)C(=O)c1c(N)ccc(-c2cnc3c(c2)[C@]2(CN3)C[C@H](CC(N)=O)C2)c1F [Compound 102a, 6-Amino-3-((1r,3r)-3-(2-amino-2-oxoethyl)-1′,2′-dihydrospiro[cyclobutane-1,3′-pyrrolo[2,3-b]pyridin]-5′-yl)-2-fluoro-N,N-dimethylbenzamide]	67 nM
CN(C)C(=O)c1c(N)ccc(-c2cnc3c(c2Cl)C2(CCC(=CS(C)(=O)=O)C2)CN3)c1F (stereo not drawn) [Compound 103, 6-Amino-3-(4′-chloro-3-((methylsulfonyl)methylene)-1′,2′-dihydrospiro[cyclopentane-1,3′-pyrrolo[2,3-b]pyridin]-5′-yl)-2-fluoro-N,N-dimethylbenzamide]	24.1 nM
CN(C)C(=O)c1c(N)ccc(-c2cnc3c(c2Cl)C2(CCC(=CC#N)C2)CN3)c1F (stereo not drawn) [Compound 104, 6-Amino-3-(4′-chloro-3-(cyanomethylene)-1′,2′-dihydrospiro[cyclopentane-1,3′-pyrrolo[2,3-b]pyridin]-5′-yl)-2-fluoro-N,N-dimethylbenzamide]	13.1 nM
